Our source for the TGI values is PubChem BioAssay (NCI).

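Five concentrations, 48 hours, 96-well plates. TGI: total growth inhibition.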

Some test systems named below: HCT-116 colon; HS 578T breast; IGROV1 ovarian; LOX IMVI melanoma; NCI-H23 lung; NCI-H460 lung; OVCAR-4 ovarian; OVCAR-8 ovarian; RXF 393 renal; SF-539 CNS.
Assay in all cases: NCI tumour cell line growth inhibition, 48 h

As to `CC(=O)OCC1OC(n2cnc3nc(Br)[nH]c(=O)c32)C(OC(C)=O)C1OC(C)=O` (stereo not given), the TGI with HCT-116 colon, in the assay on HS 578T breast, in the assay with IGROV1 ovarian, in the assay with LOX IMVI melanoma, in the assay on NCI-H23 lung and with NCI-H460 lung was more than 100 µM in each case. Besides, the TGI with OVCAR-4 ovarian, in the assay on OVCAR-8 ovarian, in the assay on RXF 393 renal and in the assay with SF-539 CNS was more than 100 µM in each case.

For the molecule `CCOP(=O)(CCCC(O)CNc1nc(N)nc(Cl)c1N=Nc1ccc(Cl)cc1)OCC` (stereo not given), the TGI with HCT-116 colon came out at 21.7 µM; in the assay on HS 578T breast, 30.3 µM; with IGROV1 ovarian it was 26.1 µM; in the assay on LOX IMVI melanoma it was 13.8 µM; with NCI-H23 lung, 28 µM; in the assay with NCI-H460 lung it was 37 µM. The TGI in the assay with OVCAR-4 ovarian was 17.6 µM; in the assay with OVCAR-8 ovarian it was 22.9 µM; in the assay with RXF 393 renal, 18.5 µM; in the assay with SF-539 CNS it was 23 µM.

As for `CCOC(=O)/C=C(/C(=O)OCC)n1cc(C)c(=O)n(Cc2cnnn2COCCOC(C)=O)c1=O`, the TGI in the assay on HCT-116 colon is 28.4 µM; in the assay with HS 578T breast, 74 µM; with IGROV1 ovarian, 32.7 µM; in the assay with LOX IMVI melanoma, 32 µM; with NCI-H23 lung it was 31.5 µM; in the assay on NCI-H460 lung, more than 61.5 µM. Further, the TGI in the assay with OVCAR-4 ovarian was found to be 47 µM; in the assay on OVCAR-8 ovarian, 29.1 µM; with RXF 393 renal, 29.6 µM; in the assay with SF-539 CNS, 19.4 µM.

In the case of `Cc1c(C(=O)O)n2c(=S)[nH]nc2c2ccccc12`, the TGI with HCT-116 colon, in the assay on HS 578T breast, in the assay on IGROV1 ovarian, with LOX IMVI melanoma, in the assay on NCI-H23 lung and with NCI-H460 lung was more than 100 µM in each case. The TGI in the assay with OVCAR-4 ovarian, in the assay with OVCAR-8 ovarian, in the assay on RXF 393 renal and in the assay on SF-539 CNS was more than 100 µM each time.

Take `O=P(O)(O)c1ccc(-c2ccc(I)cc2)cc1`: the TGI in the assay with HCT-116 colon, in the assay with HS 578T breast, in the assay with IGROV1 ovarian, with LOX IMVI melanoma, in the assay on NCI-H23 lung and in the assay with NCI-H460 lung was more than 100 µM in each case. Also, the TGI with OVCAR-4 ovarian, with OVCAR-8 ovarian, in the assay on RXF 393 renal and in the assay on SF-539 CNS was more than 100 µM each time.

Consider `COC(=O)CNC(=O)C(Cc1ccccc1)NC(=O)c1ccc(-c2ccc(Cl)cc2Cl)o1` (stereo not given), for which the TGI was 43.2 µM in the assay with HCT-116 colon; 52.1 µM with HS 578T breast; more than 100 µM with IGROV1 ovarian; 69 µM in the assay with LOX IMVI melanoma; more than 100 µM in the assay with NCI-H23 lung; 40.3 µM in the assay on NCI-H460 lung. Further, the TGI in the assay with OVCAR-4 ovarian is more than 100 µM; with OVCAR-8 ovarian, more than 100 µM; in the assay with RXF 393 renal it was 73.5 µM; in the assay with SF-539 CNS, more than 100 µM.

`Cc1ncc([N+](=O)[O-])n1CC[N+](C)([O-])CCCCn1ccnc1[N+](=O)[O-]` (stereo not given): the TGI in the assay with HCT-116 colon, with HS 578T breast, with IGROV1 ovarian, with LOX IMVI melanoma, with NCI-H23 lung and with NCI-H460 lung was more than 100 µM throughout. Further, the TGI in the assay on OVCAR-4 ovarian, in the assay with OVCAR-8 ovarian, with RXF 393 renal and with SF-539 CNS was more than 100 µM in each case.

Consider `Nc1nc(Cl)cc(OCC2(CO)CCCC2)n1`, for which the TGI in the assay on HCT-116 colon, in the assay with HS 578T breast, with IGROV1 ovarian, in the assay with LOX IMVI melanoma, with NCI-H23 lung and in the assay with NCI-H460 lung was more than 100 µM throughout. The TGI in the assay with OVCAR-4 ovarian, in the assay with OVCAR-8 ovarian, with RXF 393 renal and with SF-539 CNS was more than 100 µM each time.

Take `N[C@H]1c2c(Br)sc(Br)c2C(=O)[C@H]1O`: the TGI with HCT-116 colon was 34.9 µM; in the assay with HS 578T breast, more than 87.8 µM; with IGROV1 ovarian it was 32.8 µM; with LOX IMVI melanoma, 10.6 µM; with NCI-H23 lung, 17.5 µM; in the assay on NCI-H460 lung, 35.6 µM. The TGI with OVCAR-4 ovarian came out at 27 µM; in the assay on OVCAR-8 ovarian, 43.7 µM; in the assay on RXF 393 renal it was 16.2 µM; in the assay with SF-539 CNS it was 36 µM.

Consider `CCC(=O)Nc1cccc(N=Cc2ccc(OC(=O)/C=C\c3ccccc3)cc2)c1`, for which the TGI in the assay on HCT-116 colon, in the assay on HS 578T breast, with IGROV1 ovarian, in the assay on LOX IMVI melanoma, in the assay on NCI-H23 lung and in the assay with NCI-H460 lung was more than 75 µM in each case. The TGI is more than 75 µM in the assay with OVCAR-4 ovarian, more than 75 µM in the assay on OVCAR-8 ovarian, 48.1 µM in the assay with RXF 393 renal and more than 75 µM in the assay on SF-539 CNS.

With `Cn1cnc(N2CCCC2)c(C#N)c1=S`, the TGI in the assay with HCT-116 colon, in the assay on HS 578T breast, in the assay on IGROV1 ovarian, in the assay on LOX IMVI melanoma, with NCI-H23 lung and in the assay with NCI-H460 lung was more than 100 µM each time. Besides, the TGI with OVCAR-4 ovarian, with OVCAR-8 ovarian, in the assay with RXF 393 renal and in the assay on SF-539 CNS was more than 100 µM each time.

`CC(C)(C)NC1=NC(C(F)(F)F)(C(F)(F)F)NC(=O)N1`: the TGI in the assay with HCT-116 colon, in the assay on HS 578T breast, in the assay on IGROV1 ovarian, in the assay with LOX IMVI melanoma, in the assay on NCI-H23 lung and in the assay with NCI-H460 lung was more than 100 µM in each case. Moreover, the TGI in the assay with OVCAR-4 ovarian, in the assay on OVCAR-8 ovarian, in the assay on RXF 393 renal and in the assay on SF-539 CNS was more than 100 µM in each case.

On to `O=C1/C(=C/c2ccc(O)cc2)CCCC1CN1CCCCC1` (stereo not given), for which the TGI in the assay on HCT-116 colon was determined as 3.22 µM; in the assay on HS 578T breast, 11.5 µM; with IGROV1 ovarian it was 3.8 µM; in the assay on LOX IMVI melanoma it was 3.09 µM; in the assay on NCI-H23 lung it was 11.8 µM; with NCI-H460 lung it was 30.7 µM. The TGI is 25.8 µM in the assay on OVCAR-4 ovarian, 13.6 µM with OVCAR-8 ovarian, 27.1 µM with RXF 393 renal and 8.45 µM in the assay with SF-539 CNS.

As for `COc1cc(C2c3cc4c(cc3OC(NNc3ccccc3)C2C)OCO4)cc(OC)c1OC` (stereo not given), the TGI was 13.9 µM in the assay with HCT-116 colon; more than 43.4 µM in the assay with HS 578T breast; more than 100 µM in the assay on IGROV1 ovarian; more than 37.8 µM in the assay with LOX IMVI melanoma; more than 100 µM in the assay with NCI-H23 lung; 16.4 µM with NCI-H460 lung. In addition, the TGI with OVCAR-4 ovarian was more than 100 µM; in the assay with OVCAR-8 ovarian, more than 38.1 µM; in the assay on RXF 393 renal, more than 94.3 µM; with SF-539 CNS it was 1.67 µM.

Take `COC(=O)Nc1nc2ccc(S(=O)(=O)Nc3ccccn3)cc2[nH]1`: the TGI in the assay on HCT-116 colon, in the assay on HS 578T breast, in the assay with IGROV1 ovarian, with LOX IMVI melanoma, in the assay with NCI-H23 lung and in the assay with NCI-H460 lung was more than 100 µM in each case. For the same molecule, the TGI was more than 100 µM in the assay with OVCAR-4 ovarian, more than 100 µM with OVCAR-8 ovarian, more than 100 µM in the assay on RXF 393 renal and 52.6 µM in the assay with SF-539 CNS.

In the case of `CC(=O)O[C@H]1C(=O)[C@@]2(C)[C@H]([C@H](OC(=O)c3ccccc3)[C@]3(O)C[C@H](OC(=O)[C@H](O)[C@@H](NC(=O)c4ccccc4)c4ccc5ccccc5c4)C(C)=C1C3(C)C)[C@]1(OC(C)=O)CO[C@@H]1C[C@@H]2O`, the TGI was 0.237 µM with HCT-116 colon; 0.148 µM in the assay on HS 578T breast; more than 42.3 µM in the assay on IGROV1 ovarian; 6.59 µM in the assay on LOX IMVI melanoma; more than 45.4 µM in the assay with NCI-H23 lung; 5.19 µM in the assay with NCI-H460 lung. The TGI was more than 41 µM in the assay on OVCAR-4 ovarian, 25.8 µM in the assay on OVCAR-8 ovarian, 1.77 µM in the assay on RXF 393 renal and 0.152 µM with SF-539 CNS.

Regarding `Cc1ccc(S(=O)(=O)N2CCC[C@@H]2C(=O)O[C@@H]2CCC3CC=CC32)cc1` (stereo not given in full), the TGI in the assay with HCT-116 colon was more than 100 µM; with HS 578T breast, 87.5 µM; in the assay with IGROV1 ovarian, more than 100 µM; in the assay on LOX IMVI melanoma, 38.9 µM; in the assay on NCI-H23 lung, more than 100 µM; in the assay with NCI-H460 lung it was more than 100 µM. Besides, the TGI in the assay with OVCAR-4 ovarian is more than 100 µM; with OVCAR-8 ovarian, more than 100 µM; in the assay with RXF 393 renal it was 66.5 µM; with SF-539 CNS it was more than 100 µM.

Take `C=C(C)[C@@H](O)[C@H](O)C[C@H](C)C1CC[C@]2(C)C1=CC[C@@H]1[C@@]3(C)CC[C@@H](OC(C)=O)C(C)(C)[C@@H]3C[C@@H](OC3OC(COC(C)=O)C(O)C(O)C3O)[C@]12C` (stereo not given in full): the TGI in the assay on HCT-116 colon came to 5.88 µM; in the assay on HS 578T breast, 10 µM; with IGROV1 ovarian, 6.4 µM; with LOX IMVI melanoma it was 3.31 µM; with NCI-H23 lung, 16.1 µM; in the assay on NCI-H460 lung, 6.51 µM. The TGI stood at 9.17 µM with OVCAR-4 ovarian, 13.8 µM with OVCAR-8 ovarian, 4.49 µM in the assay on RXF 393 renal and 11.7 µM in the assay with SF-539 CNS.

As for `O=C1c2cc(I)ccc2N2CCN=C2N1Cc1ccccc1`, the TGI in the assay on HCT-116 colon, in the assay with HS 578T breast, in the assay on IGROV1 ovarian, in the assay with LOX IMVI melanoma, in the assay with NCI-H23 lung and in the assay with NCI-H460 lung was more than 100 µM in each case. In addition, the TGI in the assay on OVCAR-4 ovarian is more than 100 µM; with OVCAR-8 ovarian it was more than 100 µM; in the assay on RXF 393 renal, 49.4 µM; in the assay with SF-539 CNS, more than 100 µM.
